Assay results published in US5773438A, “Synthetic matrix metalloprotease inhibitors and use thereof” (Glycomed Incorporated, priority 1994, dated 1998).

Assays:
[1] = target: T1, human skin fibroblast collagenase (Homo sapiens, UniProt P03956); assay: inhibition of collagenase, synthetic thiol ester substrate, Ki (Table 1); assay type: biochemical
T1 construct: endogenous in cells; host or cells: human skin fibroblasts
T1 sequence (P03956 100-469): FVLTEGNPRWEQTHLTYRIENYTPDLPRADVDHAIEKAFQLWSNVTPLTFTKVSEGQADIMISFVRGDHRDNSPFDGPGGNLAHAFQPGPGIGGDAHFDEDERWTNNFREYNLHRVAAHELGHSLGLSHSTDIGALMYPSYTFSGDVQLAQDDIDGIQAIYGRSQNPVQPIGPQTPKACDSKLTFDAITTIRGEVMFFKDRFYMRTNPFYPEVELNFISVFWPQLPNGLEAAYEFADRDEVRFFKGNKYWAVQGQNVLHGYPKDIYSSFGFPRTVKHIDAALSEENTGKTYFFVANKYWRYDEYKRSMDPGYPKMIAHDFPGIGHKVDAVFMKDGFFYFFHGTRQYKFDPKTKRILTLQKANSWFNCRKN
Procedure: Specifically, assay of inhibition activity can be conducted as follows. Inhibitors may be assayed against crude or purified human skin fibroblast collagenase, or purified human gingival fibroblast collagenase using the synthetic thiol ester substrate at pH 6.5 exactly as described by Kortylewicz & Galardy, J Med Chem (1990) 33:263-273, at a collagenase concentration of 1-2 nM. The candidate inhibitors are tested for their ability to inhibit crude collagenase and gelatinase from human skin fibroblasts, crude collagenase and gelatinase from purulent human neutrophils in this assay.

[2] = target: T2, Natural human 72kD gelatinase (Homo sapiens, UniProt P08253); assay: inhibition of 72kD gelatinase (Table 2); assay type: biochemical; conditions: read-out: 72kD G inhibitory activity
T2 sequence (P08253 110-660): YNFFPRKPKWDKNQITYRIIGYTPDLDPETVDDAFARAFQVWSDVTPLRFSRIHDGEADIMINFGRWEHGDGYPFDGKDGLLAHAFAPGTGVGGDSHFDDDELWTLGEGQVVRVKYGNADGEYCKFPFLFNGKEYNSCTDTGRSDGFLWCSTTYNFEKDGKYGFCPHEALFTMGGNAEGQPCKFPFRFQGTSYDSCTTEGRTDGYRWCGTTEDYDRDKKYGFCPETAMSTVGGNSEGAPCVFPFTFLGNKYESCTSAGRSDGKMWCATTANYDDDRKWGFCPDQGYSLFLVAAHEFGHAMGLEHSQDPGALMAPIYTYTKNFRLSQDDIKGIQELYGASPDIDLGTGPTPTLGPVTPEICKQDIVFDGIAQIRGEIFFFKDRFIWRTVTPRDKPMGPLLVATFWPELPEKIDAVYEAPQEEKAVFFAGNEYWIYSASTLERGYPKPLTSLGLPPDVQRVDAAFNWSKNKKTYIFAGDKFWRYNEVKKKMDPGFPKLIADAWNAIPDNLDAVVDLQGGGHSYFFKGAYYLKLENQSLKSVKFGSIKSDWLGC
Procedure: (§1) Specifically, assay of inhibition activity can be conducted as follows. […] Assays for inhibition of human stromelysin are conducted as described by Teahan, J., et al., Biochemistry (1989) 20:8497-8501.
(§2) Assay of inhibition activity can be conducted using a fluorogenic substrate developed by Knight et al., FEBS Letters (1992) 296:263. This method uses a fluorometer to determine the rate of substrate hydrolysis in a 96 well plate format. Reaction rates are determined at several substrate concentrations, and multiple inhibitor levels. The data are analyzed by Lineweaver-Burk, Dixon and Henderson plot analyses (Enzyme Kinetics (1975) Irwin Segal (John Wiley & Sons, Inc., publishers), and as described by Henderson, Biochem J. (1972) 127:321). The substrate levels range from 10-30μM. […] Inhibitors may be assayed against purified 72 kD gelatinase, 92 kD gelatinase, neutrophil collagenase, stromelysin or other proteases as appropriate. The enzymes are activated at 37° C. with APMA (4-aminophenylmercuric acetate), and the assays are carried out at room temperature.

Stromelysin = Stromelysin (Homo sapiens, UniProt P08254); assay: inhibition of stromelysin (Table 2); assay type: biochemical; conditions: read-out: Strom inhibitory activity
Chain of Stromelysin (P08254 100-477): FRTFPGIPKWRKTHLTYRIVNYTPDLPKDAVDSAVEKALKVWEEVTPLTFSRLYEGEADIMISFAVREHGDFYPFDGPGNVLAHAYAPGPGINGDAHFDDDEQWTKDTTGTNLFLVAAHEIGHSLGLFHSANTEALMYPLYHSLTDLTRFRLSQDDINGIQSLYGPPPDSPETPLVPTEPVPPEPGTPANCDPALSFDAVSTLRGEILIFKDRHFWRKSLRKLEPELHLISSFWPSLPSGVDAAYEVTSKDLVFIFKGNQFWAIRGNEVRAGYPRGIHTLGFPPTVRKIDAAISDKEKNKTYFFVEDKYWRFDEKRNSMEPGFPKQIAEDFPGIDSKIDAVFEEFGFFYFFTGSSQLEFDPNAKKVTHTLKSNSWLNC
Procedure: as §1, §2

[3] = target: Recombinant neutrophil collagenase (Homo sapiens, UniProt P22894); assay: inhibition of recombinant neutrophil collagenase (Table 2); assay type: biochemical; conditions: read-out: NC inhibitory activity
Chain of Recombinant neutrophil collagenase (P22894 101-467): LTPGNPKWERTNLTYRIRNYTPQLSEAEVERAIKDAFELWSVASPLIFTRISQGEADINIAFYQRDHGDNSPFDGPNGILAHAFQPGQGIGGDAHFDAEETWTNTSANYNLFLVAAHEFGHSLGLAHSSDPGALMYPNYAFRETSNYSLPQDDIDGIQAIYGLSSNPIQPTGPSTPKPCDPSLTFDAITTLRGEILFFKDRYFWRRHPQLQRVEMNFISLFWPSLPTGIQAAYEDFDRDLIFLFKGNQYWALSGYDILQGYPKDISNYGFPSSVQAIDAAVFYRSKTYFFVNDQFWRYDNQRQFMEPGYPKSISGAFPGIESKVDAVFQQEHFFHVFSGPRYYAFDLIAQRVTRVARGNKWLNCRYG
Procedure: as §1, §2

[4] = target: T3, Human gingival fibrblast collagenase (Homo sapiens, UniProt P03956); assay: inhibition of human gingival fibroblast collagenase (Table 2); assay type: biochemical; conditions: read-out: HGFC inhibitory activity
T3 construct: endogenous in cells; host or cells: human gingival fibroblasts
T3 sequence (P03956 100-469): T1 sequence (P03956 100-469)
Procedure: as §1, §2

[5] = system: protease activity of chronic wound fluid; assay: Azocoll assay of protease activity in chronic wound fluid; assay type: biochemical, human; conditions: FIG. 7; for inhibition of protease activity of chronic wound fluid: highest concentration (800 μg/ml)
Procedure: Fluids were collected from 3 types of human wounds termed closed spontaneously healing wounds, open slowly healing wounds, and open chronic wounds. In the first category were fluids collected from the chest wall of women following mastectomy surgery. Fluids from non-infected wounds that were left open for valid surgical reasons were considered open slowly healing wounds. An occlusive dressing was placed over the wound bed, and fluids were collected after 2-6 hours of occlusion. Finally, fluids were also collected from chronic open wounds by covering the wounds with occlusive dressings. Wounds were considered to be chronic if they were not clinically infected and had been open and not healing for more than 4 weeks.
The various wound fluids were assayed for matrix metalloproteinase activity using the Azocoll assay essentially as described by Chavira, et al., Analytic Biochemistry (1984), 136:446.
The fluids were centrifuged, and the supernatants filtered using a 0.45μ sterile Gelman filter. The filtrates were stored frozen at -80° C. until tested for protease activity.
The effects of four inhibitors on the protease activity present in wound fluids were determined. The inhibitors were: compounds
Stock solutions of the four inhibitors were all prepared at a concentration of 800 μg/ml. Due to different solubility properties of the inhibitors, different techniques were utilized. […] S1209 was dissolved in 1% DMSO then dissolved in 10 mM citrate, pH 5.5, containing 0.05% methyl cellulose. 39A was dissolved in propylene glycol (to give a final concentration of 2.4%) then dissolved in 1 mM CaCl2, 50 mM Tris-Cl, pH 7.8. 21A was dissolved in propylene glycol (2.4%) methyl cellulose (0.05%) and 10 mM citrate, pH 8.
The protease substrate, Azocoll, was obtained from Sigma Chemical Corporation and it is a substrate for collagenase/gelatinase-like metalloproteinase enzymes and general proteases. Clostridium histolyticum collagenase (the crude form of the enzyme) was from Worthington Biochemicals. General chemicals including TRIS buffer, DMSO, and CaCl2 were from Sigma Chemical Corporation.
Briefly, 900 μl of the Azocoll substrate suspension in buffer ([…] in 50 mM TRIS, pH 7.8, 1 mM CaCl2) was added to 1.5 ml microcentrifuge tubes then 50 μl of inhibitor (or buffer) and 50 μl of chronic wound fluid (or collagenase standard) were added to the reaction tube. The reaction tubes were placed at 37° C. in a shaker that inverted the tubes 30 times per minute. After 24 hours of incubation, the reaction tubes were centrifuges at 10,000 X g and the absorbance of the supernatant solution was measured at 520 nm with a Milton-Roy spectrophotometer. Proteolysis of Azocoll substrate generates soluble colored fragments from the insoluble Azocoll substrate. Wound fluid samples were incubated alone or with the inhibitors. Controls included incubation of the Azocoll substrate with the assay buffer to measure spontaneous degradation of the substrate. A standard curve for digestion of the Azocoll substrate was generated by incubation of the Azocoll with crude bacterial collagenase. Protease levels were expressed as net μg of collagenase equivalent per ml of chronic wound fluid. In the figures, certain of the wound fluids are referred to by an individual name.
For these experiments, due to the different solubility properties of the inhibitors, different techniques were utilized. […] S1209 was dissolved in 1% DMSO then dissolved in 10 mM citrate, pH 5.5, containing 0.05% methyl cellulose. 39A was dissolved in propylene glycol (to give a final concentration of 2.4%) then dissolved in 1 mM CaCl2, […] Tris-Cl, pH 7.8. 21A was dissolved in propylene glycol (2.4%) methyl cellulose (0.05%) and 10 mM citrate, pH 8.

[6] = system: PdiBu-Induced Epidermal Hyperplasia; assay: PdiBu-induced epidermal hyperplasia mouse model (psoriasis); assay type: in vivo, hairless mice; conditions: topical
Procedure: The phorbol ester, PdiBu (20 nmol in 20 μl if acetone) was applied to both ears of hairless mice (h/h) (approximately 1 cm^2 each). The test compounds (in total volume of 20 μl) were then applied to the right ear immediately (15 to 30 min) following PdiBu. The left ear of each animal received an equivalent amount (20 μl) of vehicle. Test compounds (and vehicle) were reapplied at 6 and 18 hours following PdiBu. Treatment times were staggered to allow exact time intervals to be obtained. At 30 hours after PdiBu, animals were anesthetized, and ear thickness values were obtained using a microcaliper. The weights of punch biopsies (6mm) were then obtained. Histology was performed on selected samples taken at 30 hours.
Left ear in each animal served as vehicle-treated controls (PdiBu+ETOH). Thus, the controls for this series include: 1) Untreated controls; 2) PdiBu plus vehicle alone (included for each mouse tested); 3) PdiBu plus AHA; 4) PdiBu plus Lidex® as a positive control.

Ki [1] [µM] | Ki [4] [µM] | Structure (SMILES) | further results
> 10 |  | CNC(=O)[C@H](Cc1c[nH]c2ccccc12)NC(=O)C1CCCCC1C(=O)NO (mixture of isomers) [29A,B, N-[(±)cis-2-(N'-hydroxyamidocarbonyl)-cyclohexylcarbonyl]-L-tryptophan methylamide] | 
> 10 |  | CNC(=O)[C@H](Cc1c[nH]c2ccccc12)NC(=O)[C@@H]1CCCC[C@@H]1C(=O)O (mixture of isomers) [Compound 35, N-[(+)cis-2-carboxy-cyclohexylcarbonyl]-L-tryptophan methylamide] | 
> 10 |  | CNC(=O)[C@H](Cc1c[nH]c2ccccc12)NC(=O)[C@@H]1CCCC[C@H]1C(=O)O (mixture of isomers) [Compound 36, N-[(+)trans-2-carboxy-cyclohexylcarbonyl]-L-tryptophan methylamide] | 
0.2 |  | CC(C)CC(CC(=O)NO)C(=O)N[C@@H](Cc1c[nH]c2ccccc12)C(=O)N1CCCCC1 (stereo partly drawn) [17A,B, N-[2-isobutyl-3-(N'-hydroxyamidocarbonyl)-propanoyl]-L-tryptophan piperidinamide] | 
0.2 |  | CC(C)CC(CC(=O)NO)C(=O)N[C@@H](Cc1c[nH]c2ccccc12)C(=O)O (stereo partly drawn) [Compound 31A, N-[2-Isobutyl-3-(N'-hydroxyamidocarbonyl)-propanoyl]-L-tryptophan] | 

Second part, the molecule before the results:

Structure (SMILES) | Ki [1] [µM] | Ki [4] [µM] | further results
CNC(=O)[C@H](Cc1c[nH]c2ccccc12)N(C)C(=O)C(CC(=O)NO)CC(C)C (single isomer, unassigned) [Compound 9A, N-[2-isobutyl-3-(N'-hydroxyamidocarbonyl)-propanoyl]-N-methyl-L-tryptophanmethylamide] | 0.5 | 0.005 | Ki [2]: 0.032 µM; Ki (Stromelysin): > 1 µM; Ki [3]: 0.029 µM
CNC(=O)[C@H](Cc1ccc2ccccc2c1)NC(=O)C(CC(=O)NO)CC(C)C (single isomer, unassigned) [Compound 11A, N-[2-isobutyl-3-(N-hydroxyamidocarbonyl)-propanoyl]-L-3-(2-naphthyl)-alanine methylamide] | 0.015 | 0.0003 | 
CC(C)CC(CC(=O)NO)C(=O)N[C@@H](Cc1c[nH]c2ccccc12)C(=O)NCCO (single isomer, unassigned) [Compound 13A, N-[2-isobutyl-3-(N'-hydroxyamidocarbonyl)-propanoyl]-L-tryptophan 2-hydroxyethylamide] | 0.02 | 0.001 | 
COC(=O)CC(CC(C)C)C(=O)N[C@@H](Cc1c[nH]c2ccccc12)C(=O)N[C@@H](C)c1ccccc1 (single isomer, unassigned) [Compound 20A] |  | 0.0002 | 
CC(C)CC(CC(=O)NO)C(=O)N[C@@H](Cc1c[nH]c2ccccc12)C(=O)N[C@@H](C)c1ccccc1 (single isomer, unassigned) [Compound 21A] | 0.003 |  | inhibition of protease activity of chronic wound fluid [5]: 94%
CC(C)CC(CC(=O)O)C(=O)N[C@@H](Cc1c[nH]c2ccccc12)C(=O)NCC(=O)O (single isomer, unassigned) [Compound 34A, N-[N-(2-Isobutyl-3-carboxypropanoyl)-L-tryptophanyl]glycine] | > 10 |  | 
CC(C)CC(CC(=O)O)C(=O)N[C@@H](Cc1c[nH]c2ccccc12)C(=O)NCC(=O)O (single isomer, unassigned) [Compound 34B, N-[N-(2-Isobutyl-3-carboxypropanoyl)-L-tryptophanyl]glycine] | > 10 |  | 
CNC(=O)[C@H](Cc1c[nH]c2ccccc12)NC(=O)[C@H](CC(=O)NO)CC(C)C [Compound 5B, N-[D,L-2-isobutyl-3-(N'-hydroxycarbonylamido)-propanoyl]-tryptophan methylamide] |  |  | Ki (Stromelysin): > 1 µM
CCCCCNC(=O)[C@H](Cc1c[nH]c2ccccc12)NC(=O)C(CC(=O)NO)CC(C)C (stereo partly drawn) [Compound 15A, N-[2-isobutyl-3-(N'-hydroxyamidocarbonyl)-propanoyl]-L-tryptophan amylamide] | 0.03 | 0.0003 | 
CC(C)CC(CC(=O)O)C(=O)N[C@@H](Cc1c[nH]c2ccccc12)C(=O)NCCCCCCN (stereo partly drawn) [Compound 32A, N-(D,L-2-Isobutyl-3-carboxypropanoyl)-L-tryptophan (6-aminohexyl-1)amide] | > 10 |  | 
CC(C)C[C@H](CC(=O)O)C(=O)N[C@@H](Cc1c[nH]c2ccccc12)C(=O)N[C@@H](C)c1ccccc1 [Compound 39A, N-(2R-2-Carboxymethyl-4-methylpentanoyl)-L-tryptophan (S)-methylbenzyl amide] |  |  | effect on proteolytic degradation of Azocoll by chronic wound fluid [5]: significantly less potent that 5A, 21A, or S1209; increase in protease activity of chronic wound fluid ([5]; 0.8 μg/ml): 30%; increase in protease activity of chronic wound fluid ([5]; 8 μg/ml): 13%; inhibition of protease activity of chronic wound fluid [5]: 23%
CC(C)C[C@H](CC(=O)O)C(=O)N[C@@H](Cc1c[nH]c2ccccc12)C(=O)NCCN1CCOCC1 [Compound 51] |  | 0.032 | 
CC(C)C[C@H](CC(=O)O)C(=O)N[C@@H](Cc1c[nH]c2ccccc12)C(=O)NCCc1ccccc1 [Compound 58, N-[2-Isobutyl-3-hydroxycarbonylpropanoyl]-L-tryptophan-2(phenyl)ethylamide] |  |  | Ki [2]: 0.079 µM; Ki (Stromelysin): 10.6 µM; Ki [3]: 0.026 µM
CC(C)C[C@H](CC(=O)O)C(=O)N[C@@H](Cc1c[nH]c2ccccc12)C(=O)NCCc1ccc(S(N)(=O)=O)cc1 [Compound 59] |  |  | Ki [2]: 0.265 µM; Ki (Stromelysin): 38.2 µM; Ki [3]: 0.085 µM
CC(=O)OCC(=O)[C@@]12OC(C)(C)O[C@@H]1C[C@H]1[C@@H]3C[C@H](F)C4=CC(=O)C=C[C@]4(C)[C@@]3(F)[C@@H](O)C[C@@]12C [Lidex, fluocinonide, reference compound] |  |  | effect on PdiBu-induced ear thickness [6]: significantly inhibited; effect on PdiBu-induced increase in punch biopsy weight [6]: significantly inhibited
